Measurements taken from article PMC12249711, “Comprehensive Evaluation of 1H-Isoindole-1,3(2H)-Dione Derivatives: Pharmacokinetic Studies and Analgesic Potential in Various Pain Models” (International Journal of Molecular Sciences, 2025).
Like-named read-outs stand apart in the source and are kept apart here.

How the values were obtained:
mice [1] = experiment: Capsaicin-induced neurogenic pain test; assay type: in vivo, Albino Swiss mice; conditions: vs vehicle
Description: The examined compounds were administered 30 min before the test (n = 112). The pain reaction was induced by injecting 20 μL of a capsaicin solution prepared in saline (1.6 μg capsaicin per mouse paw) into the dorsal surface of the right hind paw for further details. The animals were immediately placed individually into glass beakers and the amount of time spent licking the injected paw was recorded for 5 min with a chronometer.

mice [2] = experiment: Glutamate-induced pain test; assay type: in vivo, Albino Swiss mice; conditions: vs vehicle
Description: Prior to the experimental procedure, individual mice were acclimatized in an observation chamber (n = 128). Thirty minutes before the test, the compounds under investigation were administered intraperitoneally (i.p.). A volume of 20 μL of a glutamate solution, containing 30 μmol per mouse paw, was subcutaneously injected into the ventral surface of the right hind paw to induce a pain response. Glutamate-induced nociception was assessed 15 min post-injection. The duration of time spent licking the injected paw was recorded using a chronometer and was interpreted as an indicator of nociception.

[3] = Pharmacokinetic study after single i.p. administration, serum and brain concentrations by LC-MS/MS, non-compartmental analysis; assay type: in vivo, Albino Swiss mice; conditions: mice; for Kp: brain/serum, read-out: Kbrain/serum (brain/serum partitioning coefficient); for Kp / MRT / Tmax / half-life / k el / CL/F / Vd/F / AUC0-inf / AUC0–8h: 5 mg/kg i.p.; for half-life: read-out: t1/2(λz) half-life in the elimination phase (converted); for k el: read-out: λz (terminal elimination rate constant) (converted); for Vd/F: read-out: Vz/F
Description: The compounds F1, F2, F3, and F4 were suspended in a 1% Tween 80 solution in sterile water for injection and given to mice i.p. at a dose of 5 mg/kg (n = 3 per time point; all mice in procedure = 96) as a single injection at a volume of 10 mL/kg. At specific time points (5; 15; 30; 60; 120; 240; 360; and 480 min after compound administration), mice were sacrificed by decapitation under isoflurane (5%) anesthesia to harvest blood and brain for assays. After allowing the blood to coagulate for 20 min at room temperature, blood samples were centrifuged for 10 min at 8000 rpm (Eppendorf miniSpin centrifuge) to obtain serum. Moreover, brains were removed (at the same time point) from skulls and washed with 0.9% NaCl. The obtained serum and brains were stored at −80 °C until analysis.
Concentrations of compounds F1 to F4 in mice brains and serum were measured by the liquid chromatography tandem mass spectrometry (LC-MS/MS) method using a Sciex QTRAP 4500 triple quadrupole mass spectrometer coupled to an Excion LC AC HPLC system (both from Danaher Corporation, Washington, DC, USA). The brains were homogenized in distilled water at the ratio of 1:4 (w/v) with a tissue homogenizer ULTRA-TURRAX T10 basic (IKA, Königswinter, Germany). The stock solutions of analyzed compounds were prepared in methanol at the concentration of 1 mg/mL. For the preparation of calibration curves, working standard solutions were prepared in methanol by the serial dilution of the stock solution at the following concentrations: 0.005; 0.01; 0.1; 0.25; 0.5; 1; 2.5; 5; and 10 µg/mL. To prepare samples for the calibration curve, 45 μL of matrix (blank plasma or brain homogenate) was spiked with 5 μL of standard working solution at an appropriate concentration level and vortexed for 10 s. Brain homogenates or serum samples (50 µL) as well as calibration samples were deproteinized with 150 μL of 0.1% formic acid in acetonitrile with an addition of internal standard (valsartan), shaken for 10 min (IKA Vibrax VXR, Königswinter, Germany), and centrifuged for 5 min at a speed of 8000× g (Eppendorf miniSpin centrifuge, Hamburg, Germany). Then, brain or serum supernatants were transferred into the autosampler vials. The autosampler temperature was maintained at 15 °C and a sample volume of 1 μL was injected into the LC-MS/MS system.
Chromatographic separation was carried out on the Hypersil GoldTM C18 analytical column (2.1 × 50 mm, 3 µm, Thermo Scientific, Waltham, MA, USA) with the oven temperature set at 30 °C. The mobile phase containing 0.1% formic acid in acetonitrile and 0.1% formic acid in water was delivered at a flow rate of […] in the gradient mode. Electrospray ionization (ESI) in the positive ion mode was used for ion production. The tandem mass spectrometer was operated at unit resolution in the selected reaction monitoring mode (SRM), monitoring the transitions of the protonated molecular ions m/z 366 to 201 (CE = 40 eV) and m/z 366 to 160 (CE = 40 eV) for compound F1, m/z 396 to 190 (CE = 39 eV) and m/z 396 to 160 (CE = 49 eV) for compound F2, m/z 434 to 145 (CE = 95 eV) and m/z 434 to 160 (CE = 47 eV) for compound F3, and m/z 456 to 167 (CE = 27 eV) and m/z 456 to 152 (CE = 85 eV) for compound F4. The first pair was used as a quantifier and the second for the identity verification—qualifier. One pair (m/z 436 to 235; CE = 42 eV) was monitored for valsartan used as an internal standard. The mass spectrometric conditions were optimized by continuous infusion of the standard solutions at the rate of 7 μL/min using a Harvard infusion pump (Harvard Apparatus, Holliston, MA, USA). The ion source temperature was maintained at 450 °C and the ion spray voltage was set at 4500 V. The curtain gas (CUR) was set at 40 and the collision gas (CAD) at Medium. The calibration curves were constructed by plotting the ratio of the peak area of the studied compound to internal standard (IS) versus drug concentration and generated by weighted (1/x·x) linear regression analysis. […]

[4] = design: method as in PMID 35396875; conditions: within the tested dose range; cited from earlier work
[5] = Albino Swiss, mouse, ip, serum, 5 min after 5 mg/kg i.p., read-out: Cmax (maximal concentration)
[6] = brain, 5 mg/kg i.p. single dose
[7] = serum, 5 mg/kg i.p. single dose

Row | Kp ([3]; Albino Swiss, mouse, ip) | MRT ([3]; Albino Swiss, mouse, ip, brain) [min] | Tmax ([3]; Albino Swiss, mouse, ip, brain) [min] | half-life ([3]; Albino Swiss, mouse, ip, brain) [min] | k el ([3]; Albino Swiss, mouse, ip, brain) [s⁻¹] | Cmax [3, 5] [ng/mL] | CL/F ([3]; Albino Swiss, mouse, ip, serum) [mL/min/kg] | MRT ([3]; Albino Swiss, mouse, ip, serum) [min] | Tmax ([3]; Albino Swiss, mouse, ip, serum) [min] | Vd/F ([3]; Albino Swiss, mouse, ip, serum) [L/kg] | half-life ([3]; Albino Swiss, mouse, ip, serum) [min] | k el ([3]; Albino Swiss, mouse, ip, serum) [s⁻¹] | AUC0-inf ([3]; brain) | AUC0–8h ([3]; brain) | Cmax [3, 6] | AUC0-inf ([3]; serum) | AUC0–8h ([3]; serum) | Cmax [3, 7] | SMILES | Reduction of capsaicin-induced neurogenic pain (mice [1]; 20 mg/kg i.p.) [%] | Reduction of glutamate-induced pain reaction (mice [2]; 20 mg/kg i.p.) [%] | also measured
1 | 2.05 | 190 | 15 | 78.6 | 0.000147 | 210 | 297 | 168 | 4.98 | 32.4 | 75.6 | 0.000153 | 573.90 µg∙h/L(kg) | 520.05 µg∙h/L(kg) | 202.25 µg/L(kg) | 280.26 µg∙h/L(kg) | 258.81 µg∙h/L(kg) | 210.25 µg/L(kg) | O=C1c2ccccc2C(=O)N1CC(O)CN1CCN(c2cccc(C(F)(F)F)c2)CC1 (centres unmarked) [Compound F3] | 48.46 | 70 | Reduction of glutamate-induced pain reaction (mice [2]; 10 mg/kg i.p.): 61%; Effect on locomotor activity / sedation [4]: mild sedative effects
2 | 0.79 | 84.6 | 4.98 | 54 | 0.000214 | 700 | 279 | 68.4 | 4.98 | 18.2 | 45 | 0.000256 | 237.16 µg∙h/L(kg) | 230.83 µg∙h/L(kg) | 465.38 µg/L(kg) | 298.26 µg∙h/L(kg) | 292.78 µg∙h/L(kg) | 699.75 µg/L(kg) | COc1ccccc1N1CCN(CC(O)CN2C(=O)c3ccccc3C2=O)CC1 (centres unmarked) [Compound F2] | 74.7 | 68.7 | Reduction of capsaicin-induced neurogenic pain (mice [1]; 5 mg/kg i.p.): 31%; Reduction of capsaicin-induced neurogenic pain (mice [1]; 10 mg/kg i.p.): 56%; Reduction of glutamate-induced pain reaction (mice [2]; 5 mg/kg i.p.): 54.3%; Reduction of glutamate-induced pain reaction (mice [2]; 10 mg/kg i.p.): 62.9%; Effect on locomotor activity / sedation [4]: dose-dependent suppression of spontaneous locomotor activity
3 | 1.77 | 81.6 | 4.98 | 54.6 | 0.000211 | 596 | 395 | 79.2 | 4.98 | 32.6 | 57 | 0.000203 | 374.60 µg∙h/L(kg) | 368.04 µg∙h/L(kg) | 970 µg/L(kg) | 211.22 µg∙h/L(kg) | 205.95 µg∙h/L(kg) | 595.75 µg/L(kg) | O=C1c2ccccc2C(=O)N1CC(O)CN1CCN(c2ccccc2)CC1 (centres unmarked) [Compound F1] | 69.0 | 87.2 | Reduction of capsaicin-induced neurogenic pain (mice [1]; 5 mg/kg i.p.): 31.7%; Reduction of capsaicin-induced neurogenic pain (mice [1]; 10 mg/kg i.p.): 40.8%; Reduction of glutamate-induced pain reaction (mice [2]; 5 mg/kg i.p.): 41.3%; Reduction of glutamate-induced pain reaction (mice [2]; 10 mg/kg i.p.): 82.3%; Effect on locomotor activity / sedation [4]: mild sedative effects
4 | 1.62 | 97.8 | 15 | 46.8 | 0.000247 | 131 | 800 | 88.2 | 4.98 | 55.8 | 48 | 0.000239 | 168.99 µg∙h/L(kg) | 164.50 µg∙h/L(kg) | 163.5 µg/L(kg) | 104.12 µg∙h/L(kg) | 101.99 µg∙h/L(kg) | 130.58 µg/L(kg) | O=C1c2ccccc2C(=O)N1CC(O)CN1CCN(C(c2ccccc2)c2ccccc2)CC1 (centres unmarked) [Compound F4] | 57.25 | 53.7 | Reduction of capsaicin-induced neurogenic pain (mice [1]; 5 mg/kg i.p.): 42%; Reduction of capsaicin-induced neurogenic pain (mice [1]; 10 mg/kg i.p.): 33.6%; Effect on locomotor activity / sedation [4]: did not impair locomotor activity
